In US4033721A, “Analysis of gentian violet residue in tissue” (priority 1976, dated 1977):
“And” between values parts separate entries of the source, which are not always exact repeats. Identical values can stand only once.

Test: Residual 14C-gentian violet in tissues of cockerels after repeated oral administration (Example 26)
Settings: for 14C dpm/Organ / 14C dpm/gram / ug/gram (ppm) in organ: individual bird; for Mean tissue residue: oral; for Mean tissue residue, mean of two values without the sport: 2.5 mg/kg

**Q.** What does the source list for CN(C)c1ccc(C(=C2C=CC(=[N+](C)C)C=C2)c2ccc(N(C)C)cc2)cc1 [^14 C-gentian violet]?
**A.** Residue 72 hrs. post-dose (breast muscle): 0.012 ppm; Residue 72 hrs. post-dose (gizzard muscle): 0.002 ppm; Residue 72 hrs. post-dose (heart muscle): 0.007 ppm; 14C dpm/Organ (kidneys, 1X dose, 4 hours): 2,863 dpm/Organ and 4,271 dpm/Organ and 2,272 dpm/Organ; 14C dpm/gram (kidneys, 1X dose, 4 hours): 1,184 dpm/gram and 1,634 dpm/gram and 1,269 dpm/gram; ug/gram (ppm) in organ (kidneys, 1X dose, 4 hours, 240 min): 0.089 ppm and 0.123 ppm and 0.095 ppm; 14C dpm/Organ (kidneys, 1X dose, 12 hours): 1,746 dpm/Organ and 1,696 dpm/Organ and 3,452 dpm/Organ; 14C dpm/gram (kidneys, 1X dose, 12 hours): 820 dpm/gram and 764 dpm/gram and 1,561 dpm/gram; ug/gram (ppm) in organ (kidneys, 1X dose, 12 hours, 720 min): 0.062 ppm and 0.057 ppm and 0.117 ppm; 14C dpm/Organ (kidneys, 1X dose, 24 hours): 2,705 dpm/Organ and 1,481 dpm/Organ and 1,644 dpm/Organ; 14C dpm/gram (kidneys, 1X dose, 24 hours): 1,463 dpm/gram and 639 dpm/gram and 561 dpm/gram; ug/gram (ppm) in organ (kidneys, 1X dose, 24 hours, 1440 min): 0.110 ppm and 0.048 ppm and 0.042 ppm; 14C dpm/Organ (kidneys, 1X dose, 48 hours): 1,186 dpm/Organ and 863 dpm/Organ; 14C dpm/gram (kidneys, 1X dose, 48 hours): 511 dpm/gram and 527 dpm/gram; ug/gram (ppm) in organ (kidneys, 1X dose, 48 hours, 2880 min): 0.038 ppm and 0.040 ppm; 14C dpm/Organ (kidneys, 1X dose, 72 hours): 972 dpm/Organ and 759 dpm/Organ; 14C dpm/gram (kidneys, 1X dose, 72 hours): 333 dpm/gram and 289 dpm/gram; ug/gram (ppm) in organ (kidneys, 1X dose, 72 hours, 4320 min): 0.025 ppm and 0.022 ppm; 14C dpm/Organ (kidneys, 5X dose, 4 hours): 11,116 dpm/Organ and 9,227 dpm/Organ and 8.867 dpm/Organ and 12,505 dpm/Organ; 14C dpm/gram (kidneys, 5X dose, 4 hours): 9,183 dpm/gram and 4,798 dpm/gram and 4,729 dpm/gram and 6,658 dpm/gram; ug/gram (ppm) in organ (kidneys, 5X dose, 4 hours, 240 min): 0.691 ppm and 0.361 ppm and 0.356 ppm and 0.501 ppm; 14C dpm/Organ (kidneys, 5X dose, 12 hours): 11,939 dpm/Organ and 6,796 dpm/Organ and 6,537 dpm/Organ and 5,712 dpm/Organ and 7,815 dpm/Organ; 14C dpm/gram (kidneys, 5X dose, 12 hours): 5,250 dpm/gram and 3,258 dpm/gram and 3,060 dpm/gram and 2,334 dpm/gram and 3,855 dpm/gram; ug/gram (ppm) in organ (kidneys, 5X dose, 12 hours, 720 min): 0.395 ppm and 0.245 ppm and 0.230 ppm and 0.176 ppm and 0.290 ppm; 14C dpm/Organ (kidneys, 5X dose, 24 hours): 6,185 dpm/Organ and 6,443 dpm/Organ and 7,315 dpm/Organ and 3,623 dpm/Organ; 14C dpm/gram (kidneys, 5X dose, 24 hours): 3,002 dpm/gram and 2,961 dpm/gram and 3,751 dpm/gram and 1,463 dpm/gram; ug/gram (ppm) in organ (kidneys, 5X dose, 24 hours, 1440 min): 0.226 ppm and 0.223 ppm and 0.282 ppm and 0.110 ppm; 14C dpm/Organ (kidneys, 5X dose, 48 hours): 2,197 dpm/Organ and 3,750 dpm/Organ and 2,882 dpm/Organ; 14C dpm/gram (kidneys, 5X dose, 48 hours): 982 dpm/gram and 1,647 dpm/gram and 1,508 dpm/gram; ug/gram (ppm) in organ (kidneys, 5X dose, 48 hours, 2880 min): 0.074 ppm and 0.124 ppm and 0.113 ppm; 14C dpm/Organ (kidneys, 5X dose, 72 hours): 4,998 dpm/Organ and 1,843 dpm/Organ and 1,792 dpm/Organ; 14C dpm/gram (kidneys, 5X dose, 72 hours): 4,044 dpm/gram and 844 dpm/gram and 1,042 dpm/gram; ug/gram (ppm) in organ (kidneys, 5X dose, 72 hours, 4320 min): 0.304 ppm and 0.067 ppm and 0.078 ppm; 14C dpm/Organ (liver, 1X dose, 4 hours): 21,804 dpm/Organ and 36,280 dpm/Organ and 16,323 dpm/Organ; 14C dpm/gram (liver, 1X dose, 4 hours): 3,084 dpm/gram and 5,753 dpm/gram and 2,493 dpm/gram; ug/gram (ppm) in organ (liver, 1X dose, 4 hours, 240 min): 0.232 ppm and 0.433 ppm and 0.188 ppm; 14C dpm/Organ (liver, 1X dose, 12 hours): 5,477 dpm/Organ and 5,889 dpm/Organ and 19,188 dpm/Organ; 14C dpm/gram (liver, 1X dose, 12 hours): 996 dpm/gram and 927 dpm/gram and 2,857 dpm/gram; ug/gram (ppm) in organ (liver, 1X dose, 12 hours, 720 min): 0.075 ppm and 0.070 ppm and 0.215 ppm; 14C dpm/Organ (liver, 1X dose, 24 hours): 14,586 dpm/Organ and 5,165 dpm/Organ and 7,248 dpm/Organ; 14C dpm/gram (liver, 1X dose, 24 hours): 2,890 dpm/gram and 830 dpm/gram and 851 dpm/gram; ug/gram (ppm) in organ (liver, 1X dose, 24 hours, 1440 min): 0.217 ppm and 0.062 ppm and 0.064 ppm; 14C dpm/Organ (liver, 1X dose, 48 hours): 8,396 dpm/Organ and 6,073 dpm/Organ; 14C dpm/gram (liver, 1X dose, 48 hours): 1,419 dpm/gram and 1,292 dpm/gram; ug/gram (ppm) in organ (liver, 1X dose, 48 hours, 2880 min): 0.107 ppm and 0.097 ppm; 14C dpm/Organ (liver, 1X dose, 72 hours): 7,261 dpm/Organ and 3,744 dpm/Organ; 14C dpm/gram (liver, 1X dose, 72 hours): 546 dpm/gram and 361 dpm/gram; ug/gram (ppm) in organ (liver, 1X dose, 72 hours, 4320 min): 0.041 ppm and 0.027 ppm; 14C dpm/Organ (liver, 5X dose, 4 hours): 44,618 dpm/Organ and 50,607 dpm/Organ and 42,844 dpm/Organ and 46,652 dpm/Organ; 14C dpm/gram (liver, 5X dose, 4 hours): 13,878 dpm/gram and 9,859 dpm/gram and 8,038 dpm/gram and 9,651 dpm/gram; ug/gram (ppm) in organ (liver, 5X dose, 4 hours, 240 min): 1.044 ppm and 0.742 ppm and 0.605 ppm and 0.726 ppm; 14C dpm/Organ (liver, 5X dose, 12 hours): 66,438 dpm/Organ and 24,948 dpm/Organ and 17,753 dpm/Organ and 26,299 dpm/Organ and 68,033 dpm/Organ; 14C dpm/gram (liver, 5X dose, 12 hours): 11,801 dpm/gram and 4,135 dpm/gram and 3,201 dpm/gram and 3,772 dpm/gram and 10,291 dpm/gram; ug/gram (ppm) in organ (liver, 5X dose, 12 hours, 720 min): 0.888 ppm and 0.311 ppm and 0.241 ppm and 0.284 ppm and 0.774 ppm; 14C dpm/Organ (liver, 5X dose, 24 hours): 60,300 dpm/Organ and 67,384 dpm/Organ and 68,033 dpm/Organ and 20,674 dpm/Organ; 14C dpm/gram (liver, 5X dose, 24 hours): 9.588 dpm/gram and 10,942 dpm/gram and 12,714 dpm/gram and 2,845 dpm/gram; ug/gram (ppm) in organ (liver, 5X dose, 24 hours, 1440 min): 0.721 ppm and 0.823 ppm and 0.957 ppm and 0.215 ppm; 14C dpm/Organ (liver, 5X dose, 48 hours): 15,334 dpm/Organ and 27,176 dpm/Organ and 13,617 dpm/Organ; 14C dpm/gram (liver, 5X dose, 48 hours): 2,649 dpm/gram and 5,220 dpm/gram and 3,102 dpm/gram; ug/gram (ppm) in organ (liver, 5X dose, 48 hours, 2880 min): 0.199 ppm and 0.393 ppm and 0.233 ppm; 14C dpm/Organ (liver, 5X dose, 72 hours): 45,587 dpm/Organ and 10,991 dpm/Organ and 13,245 dpm/Organ; 14C dpm/gram (liver, 5X dose, 72 hours): 21,927 dpm/gram and 2,447 dpm/gram and 2,991 dpm/gram; ug/gram (ppm) in organ (liver, 5X dose, 72 hours, 4320 min): 1.650 ppm and 0.184 ppm and 0.225 ppm; Residue 72 hrs. post-dose (kidney): 0.024 ppm; Elimination Rate Constant (Ke) (kidneys, 1X dose): -0.0209 h⁻¹; Mean tissue residue (kidneys, 1X dose (0.5 mg/kg), 4 hrs. post-dose): 0.102 ppm; Mean tissue residue (kidneys, 1X dose (0.5 mg/kg), 12 hrs. post-dose): 0.079 ppm; Mean tissue residue (kidneys, 1X dose (0.5 mg/kg), 24 hrs. post-dose): 0.067 ppm; Mean tissue residue (kidneys, 1X dose (0.5 mg/kg), 48 hrs. post-dose): 0.039 ppm; Mean tissue residue (kidneys, 1X dose (0.5 mg/kg), 72 hrs. post-dose): 0.024 ppm; Elimination Rate Constant (Ke) (kidneys, 5X dose): -0.0262 h⁻¹; Half-Life (t1/2) (kidneys, 5X dose): 26.7 h; Mean tissue residue (kidneys, 5X dose (2.5 mg/kg), 4 hrs. post-dose): 0.477 ppm; Mean tissue residue (kidneys, 5X dose (2.5 mg/kg), 12 hrs. post-dose): 0.267 ppm; Mean tissue residue (kidneys, 5X dose (2.5 mg/kg), 24 hrs. post-dose): 0.210 ppm; Mean tissue residue (kidneys, 5X dose (2.5 mg/kg), 48 hrs. post-dose): 0.104 ppm; Mean tissue residue (kidneys, 5X dose (2.5 mg/kg), 72 hrs. post-dose, includes a sport, high value among three): 0.150 ppm; Mean tissue residue, mean of two values without the sport (kidneys, 5X dose, 72 hrs. post-dose): 0.073 ppm; Residue 72 hrs. post-dose (liver): 0.034 ppm; Mean tissue residue (liver, 1X dose (0.5 mg/kg), 4 hrs. post-dose): 0.284 ppm; Mean tissue residue (liver, 1X dose (0.5 mg/kg), 12 hrs. post-dose): 0.120 ppm; Mean tissue residue (liver, 1X dose (0.5 mg/kg), 24 hrs. post-dose): 0.114 ppm; Mean tissue residue (liver, 1X dose (0.5 mg/kg), 48 hrs. post-dose): 0.102 ppm; Mean tissue residue (liver, 1X dose (0.5 mg/kg), 72 hrs. post-dose): 0.034 ppm; Mean tissue residue (liver, 5X dose (2.5 mg/kg), 4 hrs. post-dose): 0.779 ppm; Mean tissue residue (liver, 5X dose (2.5 mg/kg), 12 hrs. post-dose): 0.500 ppm; Mean tissue residue (liver, 5X dose (2.5 mg/kg), 24 hrs. post-dose): 0.679 ppm; Mean tissue residue (liver, 5X dose (2.5 mg/kg), 48 hrs. post-dose): 0.275 ppm; Mean tissue residue (liver, 5X dose (2.5 mg/kg), 72 hrs. post-dose, includes a sport, high value among three): 0.686 ppm; Mean tissue residue, mean of two values without the sport (liver, 5X dose, 72 hrs. post-dose): 0.205 ppm; Elimination Rate Constant (Ke) (livers, 1X dose): -0.0247 h⁻¹; Half-Life (t1/2) (livers, 1X dose): 28.0 h; Elimination Rate Constant (Ke) (livers, 5X dose): -0.0193 h⁻¹; Half-Life (t1/2) (livers, 5X dose): 35.9 h; Residue 72 hrs. post-dose (skin/fat): 0.016 ppm; Residue 72 hrs. post-dose (thigh muscle): 0.012 ppm
